Values of other authors, collected in US20090092650A1, “Sustained Delivery Formulations of Octreotide Compounds” (priority 2004, published 2009).

Conditions: Marbach et al. 1992

In the case of `C[C@@H](O)[C@@H]1NC(=O)[C@H](CCCCN)NC(=O)[C@@H](Cc2c[nH]c3ccccc23)NC(=O)[C@H](Cc2ccccc2)NC(=O)[C@@H](NC(=O)[C@H](N)Cc2ccccc2)CSSC[C@@H](C(=O)N[C@H](CO)[C@@H](C)O)NC1=O` [octreotide], the Therapeutic plasma level is listed as 0.3 ng/mL.
